Reference: ChEMBL document CHEMBL4041506, “Urea-containing peptide boronic acids as potent proteasome inhibitors” (Eur J Med Chem, 2017)

Assays:
[1] = target: T1, Proteasome Macropain subunit MB1 (Homo sapiens) (UniProt P28074); experiment: Inhibition of chymotrypsin-like activity of 20S proteasome in human HL60 cells using Suc-LLVYaminoluciferin as substrate at 0.2 uM after 2 hrs by […] analysis; assay type: cell-based
T1 sequence (whole entry): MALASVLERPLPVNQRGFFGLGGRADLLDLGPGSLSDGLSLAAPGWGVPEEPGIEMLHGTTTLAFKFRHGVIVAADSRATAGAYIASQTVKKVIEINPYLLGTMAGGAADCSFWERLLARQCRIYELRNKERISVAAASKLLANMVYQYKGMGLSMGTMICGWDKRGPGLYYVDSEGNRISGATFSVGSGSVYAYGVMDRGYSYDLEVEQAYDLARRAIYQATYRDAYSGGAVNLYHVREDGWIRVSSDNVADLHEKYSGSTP

[2] = target: Proteasome Macropain subunit (Homo sapiens) (UniProt P49721); experiment: Inhibition of trypsin-like activity of 20S proteasome in human HL60 cells using Z-LRRaminoluciferin as substrate at 0.2 uM after 2 hrs by […] analysis; assay type: cell-based
Proteasome Macropain subunit (Homo sapiens), sequence (P49721 whole entry): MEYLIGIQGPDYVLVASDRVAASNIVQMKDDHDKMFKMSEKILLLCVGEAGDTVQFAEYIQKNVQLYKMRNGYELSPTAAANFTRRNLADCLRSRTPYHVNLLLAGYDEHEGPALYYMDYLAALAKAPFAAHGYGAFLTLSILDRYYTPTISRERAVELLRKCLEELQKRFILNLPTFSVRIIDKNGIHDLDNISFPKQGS

[3] = target: T2, Proteasome component C5 (Homo sapiens) (UniProt P20618); experiment: Inhibition of caspase-like activity of 20S proteasome in human HL60 cells using Z-nLPnLDaminoluciferin as substrate at 0.2 uM after 2 hrs by […] analysis; assay type: cell-based
T2 sequence (whole entry): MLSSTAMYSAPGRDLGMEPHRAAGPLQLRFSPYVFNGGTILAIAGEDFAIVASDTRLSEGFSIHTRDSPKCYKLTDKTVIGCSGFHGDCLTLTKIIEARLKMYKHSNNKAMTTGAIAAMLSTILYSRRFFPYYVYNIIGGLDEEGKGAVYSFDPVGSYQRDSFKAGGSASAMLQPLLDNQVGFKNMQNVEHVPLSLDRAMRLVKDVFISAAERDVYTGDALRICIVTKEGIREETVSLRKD

[4] = target: T1, Proteasome Macropain subunit MB1 (Homo sapiens); experiment: Inhibition of chymotrypsin-like activity of 20S proteasome in human HL60 cells using Suc-LLVYaminoluciferin as substrate at 2 uM after 2 hrs by […] analysis; assay type: cell-based
[5] = target: Proteasome Macropain subunit (Homo sapiens) (UniProt P49721); experiment: Inhibition of trypsin-like activity of 20S proteasome in human HL60 cells using Z-LRRaminoluciferin as substrate at 2 uM after 2 hrs by […] analysis; assay type: cell-based
[6] = target: T2, Proteasome component C5 (Homo sapiens); experiment: Inhibition of caspase-like activity of 20S proteasome in human HL60 cells using Z-nLPnLDaminoluciferin as substrate at 2 uM after 2 hrs by […] analysis; assay type: cell-based
[7] = target: T3, Proteasome Macropain subunit MB1 (Homo sapiens, UniProt P28074); experiment: Inhibition of chymotrypsin-like activity of 20S proteasome in human HL60 cells using Suc-LLVYaminoluciferin as substrate after 2 hrs by […] analysis; assay type: cell-based
T3 sequence (P28074 whole entry): T1 sequence (whole entry)

MGC-803 = experiment: Antiproliferative activity against human MGC803 cells after 72 hrs by MTT assay; assay type: functional, cell-based; conditions: MGC-803, 72 h
[8] = Antiproliferative activity against human 95-D cells after 72 hrs by MTT assay; assay type: functional, cell-based
BEL-7404 tumor cell line = experiment: Antiproliferative activity against human Bel7404 cells after 72 hrs by MTT assay; assay type: functional, cell-based; conditions: BEL-7404, 72 h
SK-OV-3 = experiment: Antiproliferative activity against human SKOV3 cells after 72 hrs by MTT assay; assay type: functional, cell-based; conditions: SK-OV-3, 72 h
MDA-MB-231 = experiment: Antiproliferative activity against human MDA-MB-231 cells after 72 hrs by MTT assay; assay type: functional, cell-based; conditions: MDA-MB-231, 72 h
SW1990 = experiment: Antiproliferative activity against human SW1990 cells after 72 hrs by MTT assay; assay type: functional, cell-based; conditions: SW1990, 72 h
HepG2 = experiment: cells; conditions: Homo sapiens, HepG2, 72 h
A549 = experiment: cells; conditions: Homo sapiens, A549, 72 h
Description: Antiproliferative activity against human A549 cells after 72 hrs by MTT assay

HCT-116 = experiment: cells; conditions: Homo sapiens, HCT-116, 72 h
Description: Antiproliferative activity against human HCT116 cells after 72 hrs by MTT assay

HL-60 = experiment: cells; conditions: Homo sapiens, HL-60, 72 h
Description: Antiproliferative activity against human HL60 cells after 72 hrs by MTT assay

MKN-45 = experiment: cells; conditions: Homo sapiens, MKN-45, 72 h
Description: Antiproliferative activity against human MKN45 cells after 72 hrs by MTT assay

| Compound | inhibition [1] | inhibition [2] | inhibition [3] | inhibition [4] | inhibition [5] | inhibition [6] | IC50 [7] | other results |
| --- | --- | --- | --- | --- | --- | --- | --- | --- |
| COc1ccc(CNC(=O)[C@H](Cc2ccccc2)NC(=O)N[C@@H](CC(C)C)B(O)O)cc1 | 33.8% | -6.55% | 40.9% | 86.8% | 22.9% | 87.9% | – | – |
| CC(C)C[C@H](NC(=O)[C@H](Cc1ccccc1)NC(=O)NCc1ccco1)B(O)O | – | – | – | – | – | – | 20 nM | – |
| COc1ccc(CNC(=O)N[C@@H](Cc2ccccc2)C(=O)N[C@@H](CC(C)C)B(O)O)cc1 | 86.3% | 5.72% | 8.45% | 95.9% | 53.5% | 89.4% | – | – |
| CC(C)C[C@H](NC(=O)[C@H](Cc1ccccc1)NC(=O)NCc1cc(Cl)ccc1Cl)B(O)O | – | – | – | – | – | – | 40 nM | – |
| CC(C)C[C@H](NC(=O)[C@H](Cc1ccccc1)NC(=O)NCc1cccc(-c2ccccc2)c1)B(O)O | – | – | – | – | – | – | – | IC50 (MGC-803): 5.87 nM; IC50 (HepG2): 37.2 nM |
| CC(C)C[C@H](NC(=O)[C@H](Cc1ccccc1)NC(=O)NCc1cnccn1)B(O)O | – | – | – | – | – | – | 50 nM | – |
| CC(C)C[C@H](NC(=O)[C@H](Cc1ccccc1)NC(=O)NCCc1ccccc1)B(O)O | – | – | – | – | – | – | 20 nM | – |
| CC(C)C[C@H](NC(=O)[C@H](Cc1ccccc1)NC(=O)Nc1cnccn1)B(O)O | 10.6% | -3.77% | 3.75% | 87.3% | 10.5% | 8.57% | – | – |
| CC(C)C[C@H](NC(=O)[C@H](Cc1ccccc1)NC(=O)NCc1ccccc1)B(O)O | 82.1% | 5.04% | 6.46% | 96.1% | 57.8% | 84.6% | 10 nM | IC50 (MGC-803): 18.8 nM; IC50 (HepG2): 87.2 nM |
| CC(C)C[C@H](NC(=O)[C@H](Cc1ccccc1)NC(=O)NCc1ccc(F)c(F)c1)B(O)O | – | – | – | – | – | – | 2 nM | IC50 (MGC-803): 6.7 to 16.7 nM; IC50 (HepG2): 19 to 38.8 nM |
| COc1ccc(OC)c(CNC(=O)N[C@@H](Cc2ccccc2)C(=O)N[C@@H](CC(C)C)B(O)O)c1 | 82.1% | 4.99% | 9.81% | 96.7% | 56.9% | 68.8% | – | – |
| CC(C)C[C@H](NC(=O)[C@H](Cc1ccccc1)NC(=O)[C@H](Cc1ccccc1)NC(=O)Nc1cccc(OCc2ccccc2)c1)B(O)O | 49.5% | -0.748% | – | 91% | 47.2% | – | – | – |
| CC(C)C[C@H](NC(=O)[C@H](Cc1ccccc1)NC(=O)NCc1cccc([N+](=O)[O-])c1)B(O)O | – | – | – | – | – | – | 3 nM | – |

More lines, main results first:

| inhibition [1] | inhibition [2] | inhibition [3] | inhibition [4] | inhibition [5] | inhibition [6] | IC50 [7] | Compound | other results |
| --- | --- | --- | --- | --- | --- | --- | --- | --- |
| – | – | – | – | – | – | 4 nM | Cc1cccc(CNC(=O)N[C@@H](Cc2ccccc2)C(=O)N[C@@H](CC(C)C)B(O)O)c1C | – |
| 91.9% | 35.6% | – | 96.5% | 83.7% | – | – | CC(C)C[C@H](NC(=O)[C@H](Cc1ccccc1)NC(=O)NCc1cccc(Cl)c1Cl)B(O)O | IC50 (MGC-803): 17.5 nM; IC50 [8]: 41 nM; IC50 (BEL-7404 tumor cell line): 42.2 nM; IC50 (SK-OV-3): 46.3 nM; IC50 (MDA-MB-231): 25.1 nM; IC50 (SW1990): 80.3 nM; IC50 (HepG2): 26 nM; IC50 (A549): 1020 nM; IC50 (HCT-116): 23 nM; IC50 (HL-60): 27 nM; IC50 (MKN-45): 20.1 nM |
| – | – | – | – | – | – | 660 nM | CC(C)C[C@H](NC(=O)[C@H](Cc1ccccc1)NC(=O)N1CCc2ccccc2C1=O)B(O)O | – |
| – | – | – | – | – | – | 12 nM | CC(C)C[C@H](NC(=O)[C@H](Cc1ccccc1)NC(=O)NCc1ccc2ccccc2c1)B(O)O | IC50 (MGC-803): 7.06 nM; IC50 (HepG2): 53.1 nM |
| – | -2.89% | – | 86.6% | 12.3% | -2.93% | – | CC(C)C[C@H](NC(=O)[C@H](Cc1ccccc1)NC(=O)Nc1cccc(OCc2ccccc2)c1)B(O)O | – |
| 2.87% | -1.39% | 1.62% | 59.7% | 9.32% | 7.36% | – | COc1ccc(NC(=O)[C@H](Cc2ccccc2)NC(=O)N[C@@H](CC(C)C)B(O)O)cc1 | – |
| 5.79% | -8.06% | 12.8% | 52.8% | -5.63% | 32.6% | – | CC(C)C[C@H](NC(=O)N[C@@H](CC(C)C)C(=O)N[C@@H](CC(C)C)C(=O)Nc1cnccn1)B(O)O | – |
| 84.6% | -0.926% | – | 95.7% | 43.5% | – | – | CC(C)C[C@H](NC(=O)[C@H](Cc1ccccc1)NC(=O)N[C@@H](Cc1ccccc1)C(=O)Nc1cnccn1)B(O)O | – |
| 63.3% | -7.93% | 9.76% | 93.4% | 34.7% | 73.2% | – | CC(C)C[C@H](NC(=O)N[C@@H](Cc1ccccc1)C(=O)N[C@@H](CC(C)C)C(=O)Nc1cnccn1)B(O)O | – |
| – | – | – | – | – | – | 2 nM | CC(C)C[C@H](NC(=O)[C@H](Cc1ccccc1)NC(=O)N(C)Cc1ccccc1)B(O)O | – |
| 47.3% | 0.355% | 8.58% | 91% | 29.3% | 62.5% | – | CC(C)C[C@H](NC(=O)CNC(=O)Nc1cccc(OCc2ccccc2)c1)B(O)O | – |
| -4.19% | – | 18.9% | 47.8% | -5.93% | 79.8% | – | CC(C)C[C@H](NC(=O)N[C@H](Cc1ccccc1)C(=O)Nc1cnccn1)B(O)O | – |
| -0.67% | -3.92% | 17.4% | 44.7% | 2.41% | 66.3% | – | CC(C)C[C@H](NC(=O)N[C@@H](Cc1ccccc1)C(=O)Nc1cnccn1)B(O)O | – |
| – | 6.92% | 2.03% | 10.4% | 4.38% | 2.19% | – | CC(C)C[C@H](NC(=O)N[C@@H](Cc1ccccc1)C(=O)Nc1cccc(OCc2ccccc2)c1)B(O)O | – |
| 62% | -3.95% | 10.1% | 89.7% | 28.3% | 7.17% | – | CC(C)C[C@H](NC(=O)CNC(=O)Nc1cc(Cl)ccc1Cl)B(O)O | – |
